Source: article PMC6152321, “High-Resolution Inhibition Profiling Combined with HPLC-HRMS-SPE-NMR for Identification of PTP1B Inhibitors from Vietnamese Plants” (Molecules : A Journal of Synthetic Chemistry and Natural …, 2017)

Assays:
[1] = molecular target: T1, Recombinant human protein tyrosine phosphatase 1B (PTP1B) (Homo sapiens, UniProt P18031); assay: Kinetics of PTP1B inhibition (Lineweaver-Burk plots, Michaelis-Menten fit); type: biochemical; conditions: for Mode of Inhibition: from Lineweaver-Burk plots; for Ki: pNPP 0.125-4.0 mM, mean ± SD, n = 3
T1 construct: purchased Enzo Life Sciences Inc. BML-SE332-0050
T1 sequence (P18031 1-322 limits assumed): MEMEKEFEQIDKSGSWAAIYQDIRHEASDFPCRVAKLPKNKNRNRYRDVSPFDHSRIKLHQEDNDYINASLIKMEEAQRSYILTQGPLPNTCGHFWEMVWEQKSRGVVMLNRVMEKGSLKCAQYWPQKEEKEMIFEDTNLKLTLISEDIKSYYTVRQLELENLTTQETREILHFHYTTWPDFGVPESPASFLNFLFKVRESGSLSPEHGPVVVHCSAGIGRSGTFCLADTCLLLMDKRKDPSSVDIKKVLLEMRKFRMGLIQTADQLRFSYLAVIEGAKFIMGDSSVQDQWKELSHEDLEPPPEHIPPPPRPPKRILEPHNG
Procedure: (§1) Based on the method described by Tahtah et al., the PTP1B inhibition assay was performed at 25 °C using a two-component buffer, containing 50 mM Tris, 50 mM bis-Tris and 100 mM NaCl, adjusted to pH 7.0 with acetic acid. The final reaction volume was 180 µL, including 18 µL test sample dissolved in DMSO, 52 µL of buffer with 3.46 mM EDTA (final well concentrations 10% DMSO and 1 mM EDTA), and 60 µL of buffer with 1.5 mM pNPP and 6 mM DTT (final well concentrations 0.5 mM pNPP and 2 mM DTT). After preincubation at 25 °C for 10 min, the reaction was started by addition of 50 µL of 0.001 µg/µL PTP1B stock solution (final well concentration: 0.05 µg/well). The hydrolysis rate of pNPP to release p-nitrophenol was determined by measuring the absorbance at 405 nm every 30 s for 10 min. Preincubation and absorbance measurements were performed with a Multiscan FC microplate photometer with a built-in incubator (Thermo Scientific, Waltham, MA, USA) coupled to SkanIt version 2.5.1 software for data acquisition. The PTP1B inhibitory activity was expressed as percentage inhibition and was calculated using the following formula: % inhibition = (Slopeblank − Slopesample)/Slopeblank × 100
Enzyme kinetics of isolated PTP1B inhibitors was measured in triplicate using the standard assay conditions described above. Reactions were carried out with increasing concentrations of pNPP (0.125, 0.25, 0.5, 1.0, 2.0 and 4.0 mM) as substrate in the absence and presence of test samples (4 concentrations). The mode of inhibition was determined graphically from the Lineweaver-Burk plots. Kinetic parameters were calculated by fitting the data to the Michaelis–Menten equation using non-linear regression analysis (GraphPad Prism 7.0, GraphPad Software Inc., La Jolla, CA, USA).

[2] = system: PTP1B; conditions: cited from earlier work; for IC50: read-out: IC50 against PTP1B
[3] = molecular target: T1, Recombinant human protein tyrosine phosphatase 1B (PTP1B); assay: In vitro PTP1B inhibition assay (pNPP hydrolysis, absorbance at 405 nm); type: biochemical; conditions: for IC50: isolated compounds, mean ± SD, n = 3
Procedure: as §1
RK682 was used as a positive control and all measurements were performed in triplicate. Dose-response curves and IC50 values were obtained using GraFit version 5 (Erithacus Software Ltd., Horley, UK).

| Mode of Inhibition [1] | Ki [1] [µM] | IC50 [3] [µM] | IC50 of RK682 ([3]; positive control in crude extract screening) [µg/mL] | SMILES | IC50 [2] [µM] | PTP1B inhibition at 25 µM ([2]; concentration 25 µM) [%] |
| --- | --- | --- | --- | --- | --- | --- |
| Non-competitive | 7.9 ± 1.9 | 12.6 ± 1.6 |  | CC1(C)C=Cc2c(cc(O)c3c(=O)c(-c4ccc(O)cc4)coc23)O1 [Compound 2, derrone] | 20.63 ± 0.17 |  |
| Non-competitive | 3 ± 0.5 | 2.5 ± 0.2 |  | CC(C)=C[C@@H]1C[C@](C)(/C=C/c2cc(-c3coc4cc(O)cc(O)c4c3=O)ccc2O)Oc2ccc(-c3coc4cc(O)cc(O)c4c3=O)cc21 [Compound 4, mucusisoflavone B] |  |  |
| Non-competitive | 14.3 ± 2 | 21.2 ± 3.8 |  | CC1(C)C=Cc2c(cc3occ(-c4ccc(O)cc4)c(=O)c3c2O)O1 [Compound 3, alpinumisoflavone] | 37.52 ± 0.31 |  |
|  |  | 10.4 ± 1.6 | 3.8 ± 0.6 | CCCCCCCCCCCCCCCC(=O)C1=C(O)C(CO)OC1=O (centres unmarked) [RK682, reference compound] |  |  |
| Non-competitive | 21.3 ± 2.8 | 22.7 ± 1.7 |  | CC1(C)C=Cc2cc(-c3coc4cc(O)cc(O)c4c3=O)ccc2O1 [Compound 1, isoderrone] |  | 78 |
